What follows are compounds tested against WRN [UniPro: Q14191 (WRN_HUMAN), N500-C946] (Homo sapiens (Human), UniProt Q14191) (assay: WRN unwinding assay (FORKF DNA, fluorescence)). Details: Table 14.
Type: biochemical
Experimental: WRN unwinding assay was initiated to evaluate potential inhibitory effect of compounds for WEN helicase activity. WRN [UniPro: Q14191 (WRN_HUMAN), N500-C946] was expressed and purified in insect system and stored at −80° C. in aliquots. […] Compounds dissolved in DMSO (Sigma, D8418) were plated into a 96-well intermediate plate (BioFil, VWP-032-096) for 3-fold serial titration for 10 points using DMSO, and well-to-well transfer the titrated compounds into another 96-well intermediate plate including assay buffer in advance. Shake the 96-well intermediate plate at 600 rpm for 10 min. to fully mix. Specifically, a 3× working mixture of WRN was diluted to a concentration of 60 nM in assay buffer. […] After centrifuging at 1000 rpm and shaking at 500 rpm, the assay plate was pre-incubated for 30 min. Then, […] 3×FORKF DNA and ATP working mixture was dispensed into assay plate. Plate was sealed, centrifuged and incubated for an additional 40 min. at 25° C. […] Each concentration of compound was tested in duplicates in the assay plate. Average fluorescence signal of high control (Wells with 1% DMSO) was calculated as High Control (HC). Average fluorescence signal of low control (Wells with no WRN protein) was calculated as Low control (LC).
IC50 values were determined by fitting the data to the standard 4 parameters with Hill Slope using GraphPad Prism software.

WRN [UniPro: Q14191 (WRN_HUMAN), N500-C946], sequence (Q14191 500-946): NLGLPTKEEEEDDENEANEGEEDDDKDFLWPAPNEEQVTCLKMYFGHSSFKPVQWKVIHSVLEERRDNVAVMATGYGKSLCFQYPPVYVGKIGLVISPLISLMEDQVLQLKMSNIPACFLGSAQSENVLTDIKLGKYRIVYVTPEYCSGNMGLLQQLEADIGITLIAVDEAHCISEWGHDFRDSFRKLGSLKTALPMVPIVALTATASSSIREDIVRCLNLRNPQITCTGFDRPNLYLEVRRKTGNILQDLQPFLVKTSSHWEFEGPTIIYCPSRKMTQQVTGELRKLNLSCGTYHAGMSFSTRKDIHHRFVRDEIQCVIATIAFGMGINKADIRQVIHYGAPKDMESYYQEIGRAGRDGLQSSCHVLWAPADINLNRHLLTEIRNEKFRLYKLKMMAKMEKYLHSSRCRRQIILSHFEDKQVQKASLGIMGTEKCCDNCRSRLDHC

Row | SMILES | IC50
1 | CCc1c(N2CCN(C(=O)CNC(=O)c3ccc(Cl)cc3Cl)CC2)c(=O)n2nc(C3=CCOCC3)nc2n1CC(=O)Nc1ccc(C(F)(F)F)cc1Cl [Example 127, 2,4-Dichloro-N-(2-(4-(4-(2-((2-chloro-4-(trifluoromethyl)phenyl)amino)-2-oxoethyl)-2-(3,6-dihydro-2H-pyran-4-yl)-5-ethyl-7-oxo-4,7-dihydro-[1,2,4]triazolo[1,5-a]pyrimidin-6-yl)piperazin-1-yl)-2-oxoethyl)benzamide] | 100 to 1000 nM
2 | CCc1c(N2CCN(C(=O)CN(C)C(=O)c3ccccc3)CC2)c(=O)n2nc(C3=CCOCC3)nc2n1CC(=O)Nc1ccc(C(F)(F)F)cc1Cl [Example 135, N-(2-(4-(4-(2-((2-Chloro-4-(trifluoromethyl)phenyl)amino)-2-oxoethyl)-2-(3,6-dihydro-2H-pyran-4-yl)-5-ethyl-7-oxo-4,7-dihydro-[1,2,4]triazolo[1,5-a]pyrimidin-6-yl)piperazin-1-yl)-2-oxoethyl)-N-methylbenzamide] | < 100 nM
3 | CCc1c(N2CCN(C(=O)C(C)(C)NC(=O)c3ccccc3)CC2)c(=O)n2nc(C3=CCOCC3)nc2n1CC(=O)Nc1ccc(C(F)(F)F)cc1Cl [Example 137, N-(1-(4-(4-(2-((2-Chloro-4-(trifluoromethyl)phenyl)amino)-2-oxoethyl)-2-(3,6-dihydro-2H-pyran-4-yl)-5-ethyl-7-oxo-4,7-dihydro-[1,2,4]triazolo[1,5-a]pyrimidin-6-yl)piperazin-1-yl)-2-methyl-1-oxopropan-2-yl)benzamide] | > 1000 nM
4 | CCc1c(N2CCC3(CCN(C(=O)CNC(=O)c4ccccc4)C3)C2)c(=O)n2nc(C3=CCOCC3)nc2n1CC(=O)Nc1ccc(C(F)(F)F)cc1Cl (centres unmarked) [Example 139, N-(2-(7-(4-(2-((2-Chloro-4-(trifluoromethyl)phenyl)amino)-2-oxoethyl)-2-(3,6-dihydro-2H-pyran-4-yl)-5-ethyl-7-oxo-4,7-dihydro-[1,2,4]triazolo[1,5-a]pyrimidin-6-yl)-2,7-diazaspiro[4.4]nonan-2-yl)-2-oxoethyl)benzamide] | > 1000 nM
5 | CCc1c(N2CC3CN(C(=O)CNC(=O)c4ccccc4F)CC3C2)c(=O)n2nc(C3=CCOCC3)nc2n1CC(=O)Nc1ccc(C(F)(F)F)cc1Cl (centres unmarked) [Example 140, N-(2-(5-(4-(2-((2-Chloro-4-(trifluoromethyl)phenyl)amino)-2-oxoethyl)-2-(3,6-di hydro-2H-pyran-4-yl)-5-ethyl-7-oxo-4,7-dihydro-[1,2,4]triazolo[1,5-a]pyrimidin-6-yl)hexahydropyrrolo[3,4-c]pyrrol-2(1H)-yl)-2-oxoethyl)-2-fluorobenzamide] | > 1000 nM
6 | O=C(Cn1c(O)c(N2CCN(C(=O)CNC(=O)c3ccccc3)CC2)c(=O)n2nc(C3=CCOCC3)nc12)Nc1ccc(C(F)(F)F)cc1Cl [Example 142, N-(2-(4-(4-(2-((2-Chloro-4-(trifluoromethyl)phenyl)amino)-2-oxoethyl)-2-(3,6-dihydro-2H-pyran-4-yl)-5-hydroxy-7-oxo-4,7-dihydro-[1,2,4]triazolo[1,5-a]pyrimidin-6-yl)piperazin-1-yl)-2-oxoethyl)benzamide] | 100 to 1000 nM
7 | CCc1c(N2CCN(C(=O)CNC(=O)c3ccccc3F)CC2)c(=O)n2nc(C3=CCOCC3)nc2n1CC(=O)Nc1ccc(S(F)(F)(F)(F)F)cc1C [Example 145, N-(2-(4-(2-(3,6-Dihydro-2H-pyran-4-yl)-5-ethyl-4-(2-((2-methyl-4-(pentafluoro-16-sulfanyl)phenyl)amino)-2-oxoethyl)-7-oxo-4,7-dihydro-[1,2,4]triazolo[1,5-a]pyrimidin-6-yl)piperazin-1-yl)-2-oxoethyl)-2-fluorobenzamide] | 100 to 1000 nM
8 | CCc1c(N2CCN(C(=O)CNC(=O)c3ccccc3F)CC2)c(=O)n2nc(C3=CCOCC3)nc2n1CC(=O)Nc1sc(C)cc1Cl [Example 151, N-(2-(4-(4-(2-((3-chloro-5-methylthiophen-2-yl)amino)-2-oxoethyl)-2-(3,6-dihydro-2H-pyran-4-yl)-5-ethyl-7-oxo-4,7-dihydro-[1,2,4]triazolo[1,5-a]pyrimidin-6-yl)piperazin-1-yl)-2-oxoethyl)-2-fluorobenzamide] | 100 to 1000 nM
